The record followed here is article PMC2553842, “L-DOPA Is an Endogenous Ligand for OA1” (PLoS Biology, 2008).

This assay addresses T1, OA1 (Homo sapiens, UniProt P51810).
T1 construct: gene GPR143
Nature of the assay: radioligand saturation binding ([3H]-L-DOPA) on OA1-transfected CHO cells, with Scatchard analysis; supported by calcium response and beta-arrestin recruitment. Format: cell-based. On the technique in general: Activated receptors often draw arrestin, which recruitment assays turn into a signal.

T1 sequence (P51810 whole entry): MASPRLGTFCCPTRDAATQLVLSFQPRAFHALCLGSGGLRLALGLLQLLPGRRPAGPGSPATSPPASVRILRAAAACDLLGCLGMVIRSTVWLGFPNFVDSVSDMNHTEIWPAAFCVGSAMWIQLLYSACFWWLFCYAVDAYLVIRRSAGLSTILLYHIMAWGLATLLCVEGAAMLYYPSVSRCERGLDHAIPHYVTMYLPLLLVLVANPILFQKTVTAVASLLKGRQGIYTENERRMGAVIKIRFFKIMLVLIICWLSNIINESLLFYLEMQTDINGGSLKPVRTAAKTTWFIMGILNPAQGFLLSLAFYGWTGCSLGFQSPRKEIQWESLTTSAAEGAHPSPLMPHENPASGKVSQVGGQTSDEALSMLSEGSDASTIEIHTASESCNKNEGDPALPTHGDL

The term Kd denotes the concentration at which binding is half-saturated. In the case of `N[C@@H](Cc1ccc(O)c(O)c1)C(=O)O` [L-DOPA], the Kd worked out at 9.35 µM.
